{"source": "patent US6011019A", "about": "“Vasoactive effects and free radical generation by β-amyloid peptides” (University of South Florida, priority 1996, dated 2000)", "key": {"[1]": {"system": "rat coronary arteries", "assay": "Rat coronary artery constriction and relaxation (U46619, acetylcholine)", "settings": "for constriction of rat coronary artery by the peptide: 10^-6 M peptide", "procedure": "The effects of β-amyloid peptide were examined on samples of rat coronary arteries prepared as described above. Referring specifically to FIG. 1, rat coronary arteries were treated with β-amyloid peptide (Aβ40) causing constriction of the coronary arteries.\nFIG. 3 illustrates the effect of various amyloid fragments on the constriction of rat coronary arteries. Following control constriction with 10^-7 M U46619, the tissue samples were rinsed, equilibrated with buffer, and treated with 10^-6 M Aβ peptides for fifteen minutes. Following treatment with the Aβ peptides, the blood vessels were rinsed and again exposed to U46619. The values are expressed as percent of control constriction produced by U46619 alone.\nThe effect of pretreatment of coronary arteries with a single dose (10^-6 M) of A40 on acetylcholine induced relaxation is shown in FIG. 20. The blood vessel was preconstricted with 10^-7 M U46619 and relaxed with increasing doses of acetylcholine (10^-9 M to 10^-5 M)."}, "[2]": {"system": "human aortic endothelial cel line (HAEC)", "method": "All these cells were maintained at 37° C., under an atmosphere containing 5% CO2. For the present experiments, HAEC and BE(2)-M17 were seeded at densities of 2×10^4 cells per well in 24-23ll clusters.\nThe experiments were terminated one half, one, two and three hours post treatment by detachment with Trypsin/EDTA solution and followed by a toxicity assay with trypan blue exclusion. In parallel experiments, cells were attached to a round Thermanox (Nunc) at the bottom of the well, and were stopped three to 24 hours post treatment by fixation with 4% neutral formalin solution which was followed by Hematoxylin-Eosin stain to show morphology.\nMorphological changes in cells were monitored throughout the course of the experiment with an inverse phase-contrast microscope. After termination of the experiments, the cells fixed on the Thermanox were subjected to routine Hematoxylin-Eosin (HE) stain. The morphological characteristics of toxic cells were observed under light microscope and typical results were recorded by photographs.\nFor approximate quantification of Aβ toxicity of HAEC, modified procedure for trypan blue exclusion was employed. In brief, the detached cells were resuspended with an appropriate volume of culture media, 20 μl of this cell suspension was mixed with an equivalent volume of 4% Trypan-blue solution thoroughly, and allowed to sit for two minutes after mixing. Approximately 9 μl of the mixture was transferred to a hemocytometer for cell counting. The cell viability was determined by the equation: [formula] In the case of severe toxicity, where some of the cells were lysed, the total cell numbers were adjusted by that of controls. In this experiment, counts for each sample were triplicated."}, "[3]": {"system": "Sprague-Dawley rats", "assay": "Morris water maze acquisition and memory retention during intravenous Aβ infusion", "type": "in vivo, rat", "settings": "days 7-14", "method": "(§2) Eleven three month old male Sprague-Dawley rats (300-350 g) were anesthetized with sodium pentobarbital (50 mg/kg, ip.) and a polyethylene cannula was inserted into the right external jugular vein to approach or enter the right atrium. […] The remaining six animals served as controls by receiving twice daily intravenous infusions of vehicle solution. Treatments were continued for 14 days, with Morris water maze \"acquisition\" (learning) tested during days 7-13 and water maze memory retention evaluated on day 14. Daily acquisition testing consisted of four consecutive daily trials, wherein latency to reach the submerged platform in Quadrant 2(Q2) was determined and a daily average calculated. For the memory retention trial, the submerged platform was removed and animals were placed in the quadrant opposite Q2. The percentage of time spent in the quadrant formerly containing the platform (Q2) was used as a measure of memory retention. Acquisition data was analyzed using two-way ANOVA for repeated measures and retention data was analyzed with one-way ANOVA and Student's t-test."}, "[4]": {"system": "ET-1", "assay": "Endogenous ET-1 release, radioimmunoassay", "design": "species or system rat", "settings": "competition with 125I-labeled ET-1", "procedure": "(§1) In all cases the mean difference in percentage contraction in the pre- and post-contractions (before and after addition of test compound respectively) was measured, and compared between the two. Endogenous production of ET-1 was measured using an ET-1 RIA kit (Peninsula Laboratories).\nTo investigate the possibility that Aβ releases endogenous stores of ET-1 a radioimmunoassay in which endogenous ET-1 released into the vessel buffer, would compete with ^125 I-labeled ET-1 for binding to a specific antibody was performed. […] In addition, to examine the role played by lipid peroxidation is in the vasoconstrictive mechanism, vessels were contracted in the presence of allopurinol, which inhibits the conversion of xanthine dehydrogenase to xanthine oxidase, preventing lipid peroxidation."}, "[5]": {"system": "basilar artery", "assay": "Diameter of the basilar artery in living animals after Aβ infusion", "type": "in vivo, rat", "procedure": "In the experiments, the animals were infused twice daily for two weeks for an estimated final molarity of 0.5 μM. In the experiments, Aβ1-40 was used. The Aβ infused animals developed gross lung pathology. The lung capillary beds were the first to be reached by the venously infused Aβ. […] This is consistent with the conclusion that in Alzheimer's Disease, the cerebral vasculature could potentially be damaged and destroyed by circulating or locally produced Aβ."}, "[6]": {"system": "human neuroblastoma cell line (BE(2)-M17)", "assay": "Aβ toxicity on BE(2)-M17 (trypan blue exclusion)", "type": "cell-based", "settings": "same concentrations as HAEC cultures, up to day eight; data not shown", "excerpt": "Trypan blue exclusion was used for the cell viability assay."}, "[7]": {"system": "Sprague-Dawley rats", "settings": "rat, in vivo", "method": "as §2\nOn day 15, animals were anesthetized with sodium pentobarbital and transcardially perfused with 4% paraformaldehyde in 0.1M PBS (pH 7.4). Tissue samples from the lung, heart, kidney, liver and pancreas were collected and post-fixed in perfusate solution until histologic processing. Brains were removed and placed in perfusate for 24 hours, followed by cytoprotective storage in 30% sucrose until histologic processing. For all tissues 20 and 40 μm frozen sections were collected and stained with Mayer's Acid Hemalin followed by alkaline Congo red. Selected 20 μm brain sections were stained for glial fibrillary acidic protein (GFAP)."}, "[8]": {"system": "rat aorta", "assay": "Enhancement of endothelin-1 (ET-1) induced vasoconstriction of rat aorta", "procedure": "Normal Sprague-Dawley rats were sacrificed by decapitation, and freshly dissected rat aorta was segmented into rings and suspended in Ringers buffer using a tensiometer linked to the MacLab system. Following a two hour equilibration period, the \"pretreatment\" contraction was carried out. The aortic rings were contracted using a range of doses of endothelin-1 and relaxed using a single odes of acetylcholing (Ach(10^-7 M)). […] The dose of each Aβ peptide was 1 μM, with the exception of Aβ25-35 (1 μM and 5 μM), and was added ten minutes prior to the first ET-1 dose. For SOD treatment we added 150 U/ml 30 seconds before the addition of Aβ.\nEndothelium was removed by gently passing a glass pipette, dipped in saline solution, through the lumen of the aortae several time, allowing the pipette to gently brush the endothelial surface. Endothelium was removed from the aortae prior to hanging in the tissue bath system. Both pre-and post treatment contractions involved a single does of ET-1 (5×10^-9 M).\nas §1"}}}
{"substance": "Aβ1-40: Soluble Aβ containing forty amino acids; supplied by RBI and/or MD Enterprise", "values": [{"measurement": "constriction of rat coronary artery by the peptide", "setting": "[1]", "value": "induce constriction of the coronary artery"}, {"measurement": "constriction of rat coronary artery by the peptide", "setting": "[1]; listed as Aβ", "value": "small but detectable contraction"}, {"measurement": "duration of constriction compared among fragments", "setting": "[1]; 10^-6 M peptides, real time recording", "value": "longest sustained constriction"}, {"measurement": "U46619 induced vasoconstriction following Aβ treatment", "setting": "[1]; 10^-7 M U46619 after 10^-6 M Aβ for fifteen minutes", "value": "significantly potentiated"}, {"measurement": "cell viability at 32 μM", "setting": "[2]", "value": "significantly less cell viability compared to control"}, {"measurement": "cell viability at low concentrations", "setting": "[2]", "value": "not found to induce significant change of cell viability"}, {"measurement": "toxicity of several batches (RBI, MD, Sigma)", "setting": "[2]", "value": "almost non-toxic to HAEC"}, {"measurement": "water maze acquisition and memory retention", "setting": "[3]", "value": "no different from that of vehicle-infused controls"}, {"measurement": "release of endogenous ET-1 into the vessel buffer", "setting": "[4]", "value": "did not indicate that any unlabelled ET-1 was present"}, {"measurement": "basilar artery diameter", "setting": "[5]", "value": "results in constriction of this artery"}, {"measurement": "toxic effect on differentiated BE(2)-M17 cells", "setting": "[6]", "value": "not toxic effect was noticed"}, {"measurement": "Congo red birefringence in the brains", "setting": "[7]", "value": "no Congo red birefringence was observed"}, {"measurement": "perivascular gliosis in GFAP stained brain sections", "setting": "[7]", "value": "increased perivascular gliosis was evident"}, {"measurement": "severe vascular accidents in other peripheral tissues (kidney, pancreas, heart)", "setting": "[7]", "value": "not, however, typically seen"}, {"measurement": "effect of Aβ on the ET-A antagonist induced decrease of ET-1 contraction", "setting": "[8]", "value": "in part countered"}, {"measurement": "enhancement in aortae from older versus younger rats", "setting": "[8]", "value": "trend towards greater enhancement in older rats"}, {"measurement": "enhancement of ET-1 contraction", "setting": "[8]; peptide 1 μM (Aβ25-35 1 μM and 5 μM) ten minutes prior to first ET-1 dose", "value": "dramatically enhanced the contraction of rat aorta by ET-1"}, {"measurement": "enhancement of ET-1 contraction in the absence of endothelium", "setting": "[8]; single dose ET-1 5×10^-9 M", "value": "enhance contraction of rat aortae to an extent not significantly different from the enhancement observed in the presence of endothelium"}]}
